# Reference: ChEMBL document CHEMBL1201862, “PubChem BioAssay data set” (2004)
# Calls of active or inactive are those of the source.
# Key:
# [1] = target: T1, fMet-Leu-Phe receptor (Homo sapiens, UniProt P21462); assay: formyl peptide receptor binders – dose response (AID 519); format: functional
# T1 sequence (P21462 whole entry): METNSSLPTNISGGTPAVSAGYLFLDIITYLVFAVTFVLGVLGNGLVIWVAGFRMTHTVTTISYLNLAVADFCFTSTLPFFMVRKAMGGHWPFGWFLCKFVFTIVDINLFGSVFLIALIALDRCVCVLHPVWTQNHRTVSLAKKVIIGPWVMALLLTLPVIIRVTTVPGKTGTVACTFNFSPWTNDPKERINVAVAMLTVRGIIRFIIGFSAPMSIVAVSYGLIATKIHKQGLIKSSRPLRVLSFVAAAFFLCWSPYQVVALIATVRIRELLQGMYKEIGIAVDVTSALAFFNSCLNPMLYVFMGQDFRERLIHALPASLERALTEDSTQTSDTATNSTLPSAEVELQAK
# [2] = cells; format: functional, cell-based
# [3] = target: T2, Heat shock factor protein 1 (Mus musculus, UniProt P38532); assay: decrease of HSF1-responsive luciferase luminescence – cell-based, NIH3T3, dose retest, confirmation (AID 2382); format: functional;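 also: NIH3T3 fibroblasts with HSF1-driven luciferase reporter stressed by proteasome inhibitor MG132; luminescence from HSF1-driven luciferase expression after 8 hours of MG132 stress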
# T2 sequence (P38532 whole entry): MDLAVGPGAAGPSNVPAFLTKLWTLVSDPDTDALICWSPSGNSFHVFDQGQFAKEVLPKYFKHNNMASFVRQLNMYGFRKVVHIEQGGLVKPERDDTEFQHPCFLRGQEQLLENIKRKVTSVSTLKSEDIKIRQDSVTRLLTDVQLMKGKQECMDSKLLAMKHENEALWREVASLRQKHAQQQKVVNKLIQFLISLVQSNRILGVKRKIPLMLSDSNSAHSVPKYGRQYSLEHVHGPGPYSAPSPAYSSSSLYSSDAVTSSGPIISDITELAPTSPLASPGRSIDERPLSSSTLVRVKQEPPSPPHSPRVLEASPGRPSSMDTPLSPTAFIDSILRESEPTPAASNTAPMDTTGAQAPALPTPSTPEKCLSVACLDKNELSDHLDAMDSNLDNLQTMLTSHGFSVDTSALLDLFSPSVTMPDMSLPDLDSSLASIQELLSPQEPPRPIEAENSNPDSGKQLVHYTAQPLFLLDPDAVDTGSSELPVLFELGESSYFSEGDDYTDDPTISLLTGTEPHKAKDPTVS
# [4] = cells; format: functional, cell-based; remark: listed apart in the source
# [5] = cells; format: functional, cell-based; remark: listed apart in the source
# [6] = target: T3, Nuclear receptor subfamily 0 group B member 1 (Homo sapiens, UniProt P51843); format: functional, cell-based;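 also: HEK293T cells transfected with SF-1 and DAX-1 plus StAR promoter luciferase reporter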
# T3 sequence (P51843 whole entry): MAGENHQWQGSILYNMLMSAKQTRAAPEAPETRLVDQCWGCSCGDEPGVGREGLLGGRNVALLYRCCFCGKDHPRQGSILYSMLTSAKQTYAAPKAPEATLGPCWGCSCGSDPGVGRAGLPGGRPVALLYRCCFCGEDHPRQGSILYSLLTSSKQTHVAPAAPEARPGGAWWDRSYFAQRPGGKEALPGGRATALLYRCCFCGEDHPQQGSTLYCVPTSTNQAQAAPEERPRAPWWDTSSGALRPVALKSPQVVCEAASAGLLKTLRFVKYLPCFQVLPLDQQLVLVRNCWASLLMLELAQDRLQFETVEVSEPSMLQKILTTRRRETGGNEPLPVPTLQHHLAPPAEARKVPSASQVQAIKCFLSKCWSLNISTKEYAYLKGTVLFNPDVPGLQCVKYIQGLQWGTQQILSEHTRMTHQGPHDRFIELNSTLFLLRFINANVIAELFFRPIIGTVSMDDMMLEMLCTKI
# [7] = target: T4, Adenosylmethionine-8-amino-7-oxononanoate aminotransferase (Mycobacterium tuberculosis, UniProt P9WQ81); assay: Mycobacterium tuberculosis BioA enzyme inhibitor Measured in Biochemical System Using Plate Reader - 2163-02_Inhibitor_Dose_CherryPick_Activity.; format: functional, Mycobacterium tuberculosis UT205
# T4 sequence (P9WQ81 whole entry): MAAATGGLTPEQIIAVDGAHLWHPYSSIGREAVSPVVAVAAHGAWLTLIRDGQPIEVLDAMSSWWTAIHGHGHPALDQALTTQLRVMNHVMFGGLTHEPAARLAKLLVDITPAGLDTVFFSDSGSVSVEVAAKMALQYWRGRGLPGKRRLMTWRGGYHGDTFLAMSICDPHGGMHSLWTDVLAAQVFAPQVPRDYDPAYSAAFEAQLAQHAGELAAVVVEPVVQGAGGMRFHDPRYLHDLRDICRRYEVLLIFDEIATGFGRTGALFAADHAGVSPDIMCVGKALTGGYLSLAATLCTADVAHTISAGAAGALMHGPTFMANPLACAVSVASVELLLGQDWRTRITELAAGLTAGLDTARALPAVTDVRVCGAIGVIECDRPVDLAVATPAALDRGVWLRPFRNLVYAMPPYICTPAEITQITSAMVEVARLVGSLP
# [8] = target: SWI/SNF-related matrix-associated actin-dependent regulator of chromatin subfamily A member 2 (Homo sapiens, UniProt P51531); assay: Luminescence-based cell-based high throughput dose response assay to identify activators of the function of SWI/SNF related, matrix associated, actin dependent regulator of chromatin, subfamily a, member 2 (SMARCA2, BRM).; format: functional
# Sequence of SWI/SNF-related matrix-associated actin-dependent regulator of chromatin subfamily A member 2 (P51531 whole entry): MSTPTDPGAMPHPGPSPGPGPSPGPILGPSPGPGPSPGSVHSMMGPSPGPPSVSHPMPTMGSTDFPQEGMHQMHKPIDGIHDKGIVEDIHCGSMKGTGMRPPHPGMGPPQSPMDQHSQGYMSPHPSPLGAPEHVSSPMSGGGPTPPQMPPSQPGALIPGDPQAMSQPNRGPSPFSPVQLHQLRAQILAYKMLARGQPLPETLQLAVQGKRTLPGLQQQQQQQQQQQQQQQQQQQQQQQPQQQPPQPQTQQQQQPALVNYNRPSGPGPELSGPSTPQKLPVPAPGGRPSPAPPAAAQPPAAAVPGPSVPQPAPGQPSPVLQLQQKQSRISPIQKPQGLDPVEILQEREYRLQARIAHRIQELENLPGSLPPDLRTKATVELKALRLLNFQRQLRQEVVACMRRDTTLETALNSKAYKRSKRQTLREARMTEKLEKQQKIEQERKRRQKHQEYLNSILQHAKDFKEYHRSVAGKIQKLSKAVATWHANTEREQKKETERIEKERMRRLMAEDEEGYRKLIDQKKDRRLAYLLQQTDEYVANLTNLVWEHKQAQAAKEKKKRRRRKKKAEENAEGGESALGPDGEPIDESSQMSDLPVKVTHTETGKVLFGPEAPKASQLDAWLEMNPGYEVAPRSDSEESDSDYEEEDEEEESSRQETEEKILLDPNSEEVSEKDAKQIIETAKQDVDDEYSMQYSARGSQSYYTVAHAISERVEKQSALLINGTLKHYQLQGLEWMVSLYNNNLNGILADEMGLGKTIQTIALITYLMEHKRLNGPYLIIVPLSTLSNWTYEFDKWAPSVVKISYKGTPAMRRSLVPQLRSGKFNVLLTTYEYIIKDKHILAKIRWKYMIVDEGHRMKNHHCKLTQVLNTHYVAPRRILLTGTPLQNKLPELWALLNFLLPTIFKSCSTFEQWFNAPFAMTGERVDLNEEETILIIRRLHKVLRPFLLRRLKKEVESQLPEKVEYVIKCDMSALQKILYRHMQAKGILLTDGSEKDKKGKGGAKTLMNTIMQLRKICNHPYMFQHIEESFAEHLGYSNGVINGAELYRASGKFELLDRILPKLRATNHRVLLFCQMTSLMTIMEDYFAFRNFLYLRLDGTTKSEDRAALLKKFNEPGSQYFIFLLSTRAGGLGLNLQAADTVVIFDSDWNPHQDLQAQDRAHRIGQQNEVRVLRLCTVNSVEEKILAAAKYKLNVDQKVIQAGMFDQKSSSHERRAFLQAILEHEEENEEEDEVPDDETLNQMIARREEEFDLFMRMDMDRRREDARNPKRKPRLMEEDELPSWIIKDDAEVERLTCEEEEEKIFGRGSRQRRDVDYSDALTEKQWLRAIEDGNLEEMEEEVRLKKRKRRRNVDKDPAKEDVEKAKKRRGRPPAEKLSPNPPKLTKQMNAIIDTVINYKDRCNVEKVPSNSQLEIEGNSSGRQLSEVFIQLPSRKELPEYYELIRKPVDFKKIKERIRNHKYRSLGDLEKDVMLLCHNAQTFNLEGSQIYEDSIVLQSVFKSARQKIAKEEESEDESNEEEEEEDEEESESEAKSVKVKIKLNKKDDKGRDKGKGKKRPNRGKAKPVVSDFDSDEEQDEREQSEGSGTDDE
# [9] = Counterscreen for activators of the function of SWI/SNF related, matrix associated, actin dependent regulator of chromatin, subfamily a, member 2 (SMARCA2, BRM): Luminescence-based cell-based high throughput dose response assay to identify non-selective compounds using the VP16 reporter assay.; format: functional
# [10] = cells; format: functional, cell-based; remark: listed apart in the source
# [11] = cells; format: functional, cell-based; remark: listed apart in the source
# [12] = target: T5, Mannose-6-phosphate isomerase (Homo sapiens, UniProt P34949); assay: MPI inhibition at elevated mannose 6-phosphate – biochemical, fluorescence intensity, high mannose 6-phosphate, primary screen (AID 1220)
# T5 sequence (P34949 whole entry): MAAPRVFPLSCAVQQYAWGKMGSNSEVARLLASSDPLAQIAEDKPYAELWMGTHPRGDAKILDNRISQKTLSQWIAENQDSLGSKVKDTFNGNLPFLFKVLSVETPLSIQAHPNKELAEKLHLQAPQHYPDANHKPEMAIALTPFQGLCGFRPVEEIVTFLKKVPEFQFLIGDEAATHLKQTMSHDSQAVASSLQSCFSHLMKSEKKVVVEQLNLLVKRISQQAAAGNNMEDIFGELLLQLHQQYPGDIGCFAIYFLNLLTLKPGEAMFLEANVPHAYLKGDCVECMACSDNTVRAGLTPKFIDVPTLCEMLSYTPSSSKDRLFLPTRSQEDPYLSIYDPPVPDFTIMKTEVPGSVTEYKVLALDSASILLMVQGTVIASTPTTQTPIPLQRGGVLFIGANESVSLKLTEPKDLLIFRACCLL
# [13] = Vero E6 cell cytotoxicity, dose response, cytotoxicity control for non-replicating M. tuberculosis project, secondary assay (AID 492998); format: functional, VeroE6; settings: Vero C1008
# [14] = cells; format: functional
# [15] = target: T6, Replicative DNA helicase DnaB (Mycobacterium tuberculosis, UniProt P9WMR3); assay: DnaB intein splicing inhibitors, dose response, biochemical, cell-free fluorescence (AID 449749); format: functional
# T6 sequence (P9WMR3 whole entry): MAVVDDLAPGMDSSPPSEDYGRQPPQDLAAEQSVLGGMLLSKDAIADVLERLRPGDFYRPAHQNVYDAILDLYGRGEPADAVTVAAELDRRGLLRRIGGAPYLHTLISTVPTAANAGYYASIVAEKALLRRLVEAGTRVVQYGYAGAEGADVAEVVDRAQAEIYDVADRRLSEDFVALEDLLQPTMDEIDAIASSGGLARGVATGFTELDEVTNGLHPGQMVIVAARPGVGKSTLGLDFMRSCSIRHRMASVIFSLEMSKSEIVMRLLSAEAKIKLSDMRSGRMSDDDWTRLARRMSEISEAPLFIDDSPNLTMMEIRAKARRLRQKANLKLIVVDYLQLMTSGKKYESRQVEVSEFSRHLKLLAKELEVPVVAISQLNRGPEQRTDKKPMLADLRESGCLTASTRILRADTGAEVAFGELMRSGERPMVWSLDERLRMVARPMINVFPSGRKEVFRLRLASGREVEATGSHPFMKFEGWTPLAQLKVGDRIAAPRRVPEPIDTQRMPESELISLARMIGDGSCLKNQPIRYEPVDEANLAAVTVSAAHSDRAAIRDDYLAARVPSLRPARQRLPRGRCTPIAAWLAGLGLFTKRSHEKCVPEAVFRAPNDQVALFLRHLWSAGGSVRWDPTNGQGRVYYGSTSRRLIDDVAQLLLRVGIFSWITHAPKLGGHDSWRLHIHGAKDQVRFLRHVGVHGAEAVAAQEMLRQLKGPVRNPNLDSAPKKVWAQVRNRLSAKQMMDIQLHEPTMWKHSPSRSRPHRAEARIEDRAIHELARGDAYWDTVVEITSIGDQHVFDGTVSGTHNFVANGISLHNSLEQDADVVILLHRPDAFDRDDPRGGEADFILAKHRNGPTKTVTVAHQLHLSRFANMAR
# [16] = target: T7, Protein RecA (Mycobacterium tuberculosis, UniProt P9WHJ3); assay: Fluorescence Cell-Free Homogeneous Dose Retest to Identify Inhibitors of RecA-Intein Splicing Activity. [Related pubchem assays (depositor defined):AID2097, AID2223, AID489010, AID492950]; format: functional
# T7 sequence (P9WHJ3 whole entry): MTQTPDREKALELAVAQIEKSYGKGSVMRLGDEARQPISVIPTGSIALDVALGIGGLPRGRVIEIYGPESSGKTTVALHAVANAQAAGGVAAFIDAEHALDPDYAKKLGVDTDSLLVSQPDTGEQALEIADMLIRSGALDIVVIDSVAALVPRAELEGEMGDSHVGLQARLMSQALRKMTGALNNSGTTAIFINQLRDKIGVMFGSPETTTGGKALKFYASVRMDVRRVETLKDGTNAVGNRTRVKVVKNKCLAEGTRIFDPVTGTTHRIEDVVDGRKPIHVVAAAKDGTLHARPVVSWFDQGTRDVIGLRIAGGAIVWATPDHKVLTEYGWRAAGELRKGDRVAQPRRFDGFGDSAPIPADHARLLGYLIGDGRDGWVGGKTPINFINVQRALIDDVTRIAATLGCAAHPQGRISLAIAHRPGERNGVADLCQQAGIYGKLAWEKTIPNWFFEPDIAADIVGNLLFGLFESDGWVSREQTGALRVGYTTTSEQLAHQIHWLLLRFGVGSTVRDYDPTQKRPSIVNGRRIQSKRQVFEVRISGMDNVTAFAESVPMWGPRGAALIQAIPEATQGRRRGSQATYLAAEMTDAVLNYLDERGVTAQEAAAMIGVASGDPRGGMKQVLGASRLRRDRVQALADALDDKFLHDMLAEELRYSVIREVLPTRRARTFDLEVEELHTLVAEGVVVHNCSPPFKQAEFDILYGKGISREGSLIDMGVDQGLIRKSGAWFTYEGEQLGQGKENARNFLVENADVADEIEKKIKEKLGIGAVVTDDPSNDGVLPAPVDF
# [17] = test system: HEK293; assay: EBV LMP1 TES2 canonical NF-kB signalling blockers – cell-based, HEK293, luciferase, cherry-pick, dose response (AID 588343); format: functional; settings: Homo sapiens
# [18] = luciferase reporter signal suppression in cells – H4 neuroglioma cells, luminescence, dose response (AID 1990); format: functional, cell-based
# [19] = Luminescence Cell-Based Dose Response HTS to Identify Inhibitors of 5'UTR Stem-Loop Driven Prion Protein mRNA Translation in H4 Neuroglioblastoma Cells. [Related pubchem assays: 1827 (Project Summary), 1813 (Primary HTS)]; format: functional
# [20] = alpha-synuclein stem-loop luciferase translation blockers – H4 neuroglioma cells, luminescence, confirmation (AID 1988); format: functional, cell-based
# [21] = inhibition of ADAM10 peptide cleavage – biochemical, FRET peptide substrate, recombinant human ADAM10, selectivity assay for ADAM17 exosite inhibitor project, dose response (AID 743259);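 also: ADAM10 enzyme cleaving a FRET peptide substrate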
# [22] = blockers of HIV-1 envelope-mediated cell-cell fusion – cherry-pick, dose response (AID 652057); format: functional, cell-based
# [23] = viability loss in CEM21 cells – cell-based, CellTiter-Glo luminescence, cherry-picked, cytotoxicity control for viral fusion inhibitor project, dose response (AID 652042); format: functional;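 also: potency for signal decrease meaning cytotoxicity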
# [24] = blockers of HIV-1 ZM109 envelope-driven cell-cell fusion – HeLa effector, CEM target cells, luciferase, cherry-pick, dose response (AID 652058); format: functional, cell-based;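 also: luciferase signal from HIV-1 Env mediated cell-cell fusion of effector and target cells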
# [25] = HIV-1 AD8 envelope cell-cell fusion blockers – cherry-pick, dose response (AID 652062); format: functional, cell-based;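 also: luciferase signal from cell-cell fusion driven by HIV-1 clade B AD8 Env; potency is for inhibitors of fusion seen as a drop in luminescence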
structure (smiles),measurement,setting,value
Cc1ccc(F)c(NC(=O)C2CCCCC2C(=O)O)c1 (configuration not stated),Ki,[1],> 66.7 µM (inactive)
COc1ccc(C2NC(S)=NC3=C2CCCC3=C2SCCS2)cc1 (configuration not stated),EC50,[2],10.6 µM (active)
same,EC50,[3],> 195 µM (not active)
same,EC50,[4],> 350 µM (not active)
same,IC50,[5],> 67.5 µM (inactive)
same,IC50,[6],7.9 µM (active)
COc1cccc(-c2nc(CS(=O)(=O)CC(=O)NCCC(C)C)c(C)o2)c1,Ki,[1],> 66.7 µM (inactive)
CCN(CC)c1ccc2cc(C(=O)c3cccs3)c(=O)oc2c1,AC50,[7],0.195 µM (active)
same,EC50,[8],> 91 µM (inactive)
same,EC50,[9],> 91 µM (inactive)
c1ccc(CCN2CN(CCCN3CCOCC3)c3nc4ccccc4n3C2)cc1,IC50,[10],> 29.9 µM (inactive)
same,EC50,[11],> 29.9 µM (inactive)
CCOC(=O)C(Nc1ccc2ccccc2c1)C(=O)OCC,IC50,[12],> 50 µM (not active)
same,CC50,[13],> 20 µM (active)
same,IC50,[14],4.41 µM (active)
same,AC50,[15],5.7 µM (active)
same,EC50,[16],13 µM (active)
same,EC50,[8],> 91.2 µM (inactive)
same,EC50,[9],> 91.2 µM (inactive)
CC(C)Oc1ccc(C(=O)Nc2nnc(SCC(=O)N3CCOCC3)s2)cc1,AC50,[17],0.897 µM (active)
same,IC50,[5],> 67.5 µM (inactive)
same,IC50,[6],> 67.5 µM (inactive)
Cc1c(C(=O)OCC(C)C)[nH]c2c1C(=O)CC(c1ccco1)C2 (configuration not stated),EC50,[18],1.95 µM (active)
same,EC50,[19],1.5 µM (active)
same,EC50,[20],0.212 µM (active)
same,IC50,[5],> 67.5 µM (inactive)
same,IC50,[6],> 67.5 µM (inactive)
C[C@H](NC(=O)c1[nH]cnc1C(=O)NC(c1ccccc1)c1ccccc1)C(=O)OCc1ccccc1,IC50,[21],> 69.5 µM (inactive)
O=C(C[C@H]1C=C[C@@H](NC(=O)c2cccc(F)c2)[C@@H](CO)O1)NCc1ccc(Oc2ccccc2)cc1,AC50,[22],0.988 µM (active)
same,AC50,[23],46.3 µM (active)
same,AC50,[24],0.725 µM (active)
same,AC50,[25],2.83 µM (active)
